Data published in US20180133223A1, “COMBINATION THERAPY WITH A PHOSPHOINOSITIDE 3-KINASE INHIBITOR WITH A ZINC BINDING MOIETY” (Curis, Inc., priority 2016, published 2018).
Marks after values point to notes of the source that are not given here.

Experiments:
[1] = system: xenograft tumor; experiment: Mouse xenograft tumor models; assay type: in vivo; conditions: oral or intravenous administration
[2] = Oral bioavailability in animal models; assay type: in vivo
[3] = Genotoxicity testing, Ames test
[4] = system: HDACs (HeLa cell nuclear extracts); experiment: HDAC activity assay (Biomol Color de Lys), HeLa cell nuclear extracts; assay type: biochemical; conditions: HeLa cell nuclear extracts as source of HDACs
Description: HDAC inhibitory activity was assessed using the Biomol Color de Lys system (AK-500, Biomol, Plymouth Meeting, Pa.). Briefly, HeLa cell nuclear extracts were used as a source of HDACs. Different concentrations of test compounds were serially diluted in dimethylsulfoxide (DMSO) and added to HeLa cell nuclear extracts in the presence of a colorimetric artificial substrate. Final assay condition contained 50 mM Tris/Cl, pH 8.0, 137 mM NaCl, 2.7 mM KCl and 1 mM MgCl2. Reactions were carried in room temperature (25° C.) for 1 hour before addition of developer for termination. Relative enzyme activity was measured in the WALLAC Victor II 1420 microplate reader as fluorescence intensity (excitation: 350-380 nm; emission: 440-460 nm). Data were analyzed using GraphPad Prism (v4.0a) with a sigmoidal dose response curve fitting for IC50 calculation.

[5] = system: U2932; experiment: Tumor growth inhibition, U2932; assay type: in vivo; conditions: U2932, 100 mg/kg
[6] = system: WSUDLCL2; experiment: Tumor growth inhibition, WSUDLCL2; assay type: in vivo; conditions: WSUDLCL2, 100 mg/kg
[7] = system: OCILY3; experiment: Tumor growth inhibition, OCILY3; assay type: in vivo; conditions: OCILY3, 100 mg/kg
[8] = system: SUDHL4; experiment: SU-DHL-4 diffuse large B cell lymphoma xenograft model; assay type: in vivo, mice; conditions: SUDHL4, 100 mg/kg
Description: 7- to 9-week-old female immunodeficient Fox Chase SCID Beige mice (15-24 g) obtained from Charles River Laboratories (Wilmington, Mass.) were subcutaneously injected with 5×10^6 SU-DHL-4 cells in a medium suspension of 100 μL cold PBS into the right hind flank region. The treatment was started 29 days following implantation; the average tumor size reached was 126 mm^3. […] Venetoclax (ABT-199) was dissolved in Vehicle 2 (60% phosal 50 PG, 30% PEG 400 and 10% ethanol) to a concentration of 20 mg/mL.
In Groups H to K, Compound 1 and venetoclax were dosed within one minute of each other.
Tumor size was measured twice weekly and the volume was expressed in mm^3 using the formula, V=0.5a×b^2, where a and b were the long and short diameters of the tumor, respectively. The tumor size was then used for the calculation of tumor growth inhibition (TGI)=(1−(T1−T0)/(C1−C0))×100, where C1=mean tumor volume of control mice at time t; T1=mean tumor volume of treated mice at time t; C0=mean tumor volume of control mice at time 0; and T0=mean tumor volume of treated mice at time 0.
(§1) Differences between values obtained in tumors treated with different experimental conditions were determined using the Student's t-test on GraphPad Prism 5.0 (Graphpad Software). p<0.05 was considered as statistically significant.

[9] = system: DOHH2; experiment: DOHH2 diffuse large B cell lymphoma xenograft model; assay type: in vivo, mice; conditions: DOHH2, 100 mg/kg
Description: Six- to 9-week-old female immunodeficient Fox Chase SCID Beige mice obtained from Charles River Laboratories (Wilmington, Mass.) were subcutaneously injected with 5×10^6 cells in a medium suspension of 100 to 200 μL into the right hind flank region. The treatment was started when the average tumor size reached approximately 100 to 200 mm^3. […] Venetoclax was formulated in 60% phosal 50PG, 30% PEG 400, 10% ethanol (Vehicle 2; Sigma Aldrich, St. Louis, Mo.).
Varying doses of Compound 1 alone, venetoclax alone, the two agents in combination or vehicle were administered orally as per Institutional Animal Care and Use Committee guidelines. […] Venetoclax and Vehicle 2 were dosed daily for 21 days.
Tumor size was measured twice weekly and the volume was expressed in mm^3 using the formula, V=0.5a×b^2, where a and b were the long and short diameters of the tumor, respectively. […]
as §1

[10] = system: KARPAS422; experiment: Tumor growth inhibition, KARPAS422; assay type: in vivo; conditions: KARPAS422, 100 mg/kg
[11] = Tumor tissue uptake in xenograft tumor bearing mice; assay type: in vivo; conditions: oral or intravenous dosing
[12] = system: OCILY3 cells; experiment: Cancer cell proliferation / drug combination (CellTiter-Glo); assay type: cell-based
Description: (§2) DLBCL cancer cell lines were purchased from the American Type Culture Collection (Manassas, Va.) and German Collection of Microorganisms and Cell Cultures (Braunschweig, Germany). Cells were maintained according to manufacturing recommendation and incubated at 37° C. in a humidified atmosphere of 5% CO2. Growth media was changed every 2 to 3 days and cells were maintained at a density of 2×10^6 to 4×10^6 cells/mL. Exponentially growing cell cultures were used for all experiments described below.
(§3) Cells were plated at densities of 2×10^4 in 96-well flat-bottomed plates with the recommended culture medium for proliferation assays. Cells were then incubated with indicated compounds at various concentrations for indicated amount of time in culture medium supplemented with 10% (v/v) FBS. Cell viability was assessed using the […]-GLO® Luminescent Cell Viability Assay (Promega, Madison, Wis.). GraphPad Prism 5.0 (Graphpad Software, La Jolla, Calif.) was used for curve fitting and IC50 calculation. Two independent experiments with duplicates were performed for each experiment.
(§4) Drug combination synergy was determined based on dose-effect curves generated as cell proliferation after 24 hours of treatment.

[13] = system: SUDHL4 cells; experiment: as above; assay type: cell-based
Description: as §2, §3, §4

[14] = system: DOHH2 cells; experiment: as above; assay type: cell-based; conditions: DOHH2, Follicular Lymphoma, single agent; read-out: ABT-199 EC50
Description: as §2, §3, §4

[15] = system: WSUDLCL2 cells; experiment: as above; assay type: cell-based
Description: as §2, §3, §4

[16] = system: KARPAS422 cells; experiment: as above; assay type: cell-based
Description: as §2, §3, §4

[17] = system: U2932 cells; experiment: as above; assay type: cell-based; conditions: U2932, ABC DLBCL, single agent; read-out: ABT-199 EC50
Description: as §2, §3, §4

**Q.** For COc1ccc(-c2nc(N3CCOCC3)c3sc(CN(C)c4ncc(C(=O)NO)cn4)cc3n2)cn1 [Compound 1, N-hydroxy-2-(((2-(6-methoxypyridin-3-yl)-4-morpholinothieno[3,2-d]pyrimidin-6-yl)methyl)(methyl)amino)pyrimidine-5-carboxamide], which antitumor activity [1] is on record?
**A.** substantial antitumor activity

**Q.** And the oral bioavailability [2]?
**A.** significant oral bioavailability

**Q.** What about the “safety profile, genotoxicity (Ames test)” value [3] of the same compound?
**A.** favorable safety profile

**Q.** What about the IC50 [4] of the same compound?
**A.** < 100 nM

**Q.** What about the “Compound 1 %TGI (100 mg/kg)” value [5] of the same compound?
**A.** 97%

**Q.** What about the “Compound 1 %TGI (100 mg/kg)” value [6] of the same compound?
**A.** 69%

**Q.** And the “Compound 1 %TGI (100 mg/kg)” value [7]?
**A.** 23%

**Q.** And the “Compound 1 %TGI (100 mg/kg)” value [8]?
**A.** 47%*

**Q.** What about the “Compound 1 %TGI (100 mg/kg)” value [9] of the same compound?
**A.** 56%

**Q.** And the “Compound 1 %TGI (100 mg/kg)” value [10]?
**A.** 33%

**Q.** And the “uptake by the tumor tissue” value [11]?
**A.** significant uptake by the tumor tissue

**Q.** For venetoclax [ABT-199], which “sensitivity of cell line to single agent” value ([12]; OCILY3) is on record?
**A.** refractory

**Q.** What about the EC50 ([12]; OCILY3, ABC DLBCL, single agent, read-out: ABT-199 EC50) of the same compound?
**A.** 20000 nM

**Q.** What about the “sensitivity of cell line to single agent” value ([13]; SUDHL4) of the same compound?
**A.** refractory

**Q.** What about the EC50 ([13]; SUDHL4, GBC DLBCL, single agent, read-out: ABT-199 EC50) of the same compound?
**A.** 2130 nM

**Q.** And the EC50 [14]?
**A.** 133 nM

**Q.** What about the “sensitivity of cell line to single agent” value ([15]; WSUDLCL2) of the same compound?
**A.** refractory

**Q.** And the EC50 ([15]; WSUDLCL2, GCB DLBCL, single agent, read-out: ABT-199 EC50)?
**A.** 3660 nM

**Q.** And the “sensitivity of cell line to single agent” value ([16]; KARPAS422)?
**A.** refractory

**Q.** What about the EC50 ([16]; KARPAS422, Follicular Lymphoma, single agent, read-out: ABT-199 EC50) of the same compound?
**A.** 15600 nM

**Q.** What about the EC50 [17] of the same compound?
**A.** 476 nM
